Consider 23 molecules from patent US20200377501A1, “DEGRADERS OF EGFR AND METHODS OF USE THEREOF” (DANA-FARBER CANCER INSTITUTE, INC., priority 2018, published 2020).

The target of assay [1] is T1, EGFR T790M/L858R Ba/F3 cell line (Homo sapiens, UniProt P00533, T790M/L858R, cells depend on it).
T1 construct: The constructs were shuttled into the retroviral vector JP1540 using the BD Creator™ System (BD Biosciences)
The experiment in a line: Ba/F3 cell proliferation (MTS assay). The format is cell-based, murine. The conditions noted are these: for Remaining cell proliferation activity (% of control): EGFR T790M/L858R Ba/F3. As to the method:
The EGFR mutant L858R, Del E746_A750, L858R/T790M, DelE746_A750/T790M, L858R/T790M/C797S and Del/T790M/C797S Ba/F3 cells were previously described (Zhou et al., Nature 462, (2009), 1070-1074). All cell lines were maintained in RPMI 1640 (Cellgro; Mediatech Inc., Herndon, Calif.) supplemented with 10% FBS 100 units/mL penicillin, 100 units/mL streptomycin, and 2 mM glutamine. L858R cells were maintained in ACL-4 media (Invitrogen, Carlsbad, Calif.) supplemented with 5% FBS, 100 units/mL penicillin, 100 units/mL streptomycin, and 2 mM glutamine. The EGFR 1941R mutation was introduced via site directed mutagenesis using the Quick Change Site-Directed Mutagenesis kit (Stratagene; La Jolla, Calif.) according to the manufacturer's instructions. All constructs were confirmed by DNA sequencing. The constructs were shuttled into the retroviral vector JP1540 using the BD Creator™ System (BD Biosciences). Ba/F3 cells were infected with retrovirus and according to standard protocols, as described previously (Zhou 2009). Stable clones were obtained by selection in puromycin (2 μg/ml).
Growth and inhibition of growth was assessed by MTS assay and was performed according to previously established methods (Zhou 2009). The MTS assay is a colorimetric method for determining the number of viable cells that is based on the bioreduction of MTS by cells to a formazan product that is soluble in cell culture medium and can be detected spectrophotometrically. […] All experimental points were set up in six wells and all experiments were repeated at least three times. […] The curves were fitted using anon-linear regression model with a sigmoidal dose response.
For orientation: Formazan colour is commonly taken as a measure of viable cells.

Assay [2] deals with T2, recombinant EGFR T790M/L858R kinase (Homo sapiens, UniProt P00533, L858R/T790M).
T2 construct: Constructs spanning residues 696-1022 of the human EGFR; GST (cleaved yes); made in house; host or cells: Sf9 insect cells (pTriEX system)
T2 sequence (P00533 696-1022 T790M/L858R): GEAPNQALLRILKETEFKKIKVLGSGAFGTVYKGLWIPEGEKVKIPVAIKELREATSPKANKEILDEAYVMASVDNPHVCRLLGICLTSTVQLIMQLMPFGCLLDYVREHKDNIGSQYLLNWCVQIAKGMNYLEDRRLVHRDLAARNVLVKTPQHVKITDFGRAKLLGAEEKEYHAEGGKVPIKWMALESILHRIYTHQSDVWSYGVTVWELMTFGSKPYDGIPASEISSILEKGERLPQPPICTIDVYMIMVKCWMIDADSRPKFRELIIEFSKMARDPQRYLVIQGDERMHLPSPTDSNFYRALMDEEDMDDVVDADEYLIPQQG
The experiment in a line: HTRF-based EGFR biochemical assay. As to the method: Constructs spanning residues 696-1022 of the human EGFR (including wild type and L858R, L858R/T790M, T790M, and T790M/V948R mutant sequences) were prepared in a GST-fusion format using the pTriEX system (Novagen) for expression in Sf9 insect cells essentially as described (Yun et al., PNAS 105, 2070-2075 (2008); Yun et al., Cancer Cell 11, 217-227 (2007)). EGFR kinase proteins were purified by glutathione-affinity chromatography followed by size-exclusion chromatography after cleavage with TEV or thrombin to remove the GST fusion partner following established procedures.
EGFR biochemical assays were carried out using a homogeneous time-resolved fluorescence (HTRF) assay as described previously. […] All reactions were carried out at room temperature in white ProxiPlate™ 384-well Plus plates (PerkinElmer) and were quenched with 5 μL of 0.2 M EDTA at 60 min.
Background: TR-FRET usually uses a lanthanide donor and a delayed reading to cut background.

Where [3] appears, read: absence of cetuximab, read-out: Ba/F3 cellular activity (EC50) T790M/L858R.
Setting [4] is: compound at 1 μM in the presence of 1 μg/mL cetuximab.
Where [5] appears, read: read-out: Ba/F3 cellular activity (EC50) T790M/L858R + Cetuximab (1 μg/mL), presence of 1 μg/mL cetuximab.

Where two headings read alike, the source gives them in different places.

T1 sequence (P00533 whole entry T790M/L858R): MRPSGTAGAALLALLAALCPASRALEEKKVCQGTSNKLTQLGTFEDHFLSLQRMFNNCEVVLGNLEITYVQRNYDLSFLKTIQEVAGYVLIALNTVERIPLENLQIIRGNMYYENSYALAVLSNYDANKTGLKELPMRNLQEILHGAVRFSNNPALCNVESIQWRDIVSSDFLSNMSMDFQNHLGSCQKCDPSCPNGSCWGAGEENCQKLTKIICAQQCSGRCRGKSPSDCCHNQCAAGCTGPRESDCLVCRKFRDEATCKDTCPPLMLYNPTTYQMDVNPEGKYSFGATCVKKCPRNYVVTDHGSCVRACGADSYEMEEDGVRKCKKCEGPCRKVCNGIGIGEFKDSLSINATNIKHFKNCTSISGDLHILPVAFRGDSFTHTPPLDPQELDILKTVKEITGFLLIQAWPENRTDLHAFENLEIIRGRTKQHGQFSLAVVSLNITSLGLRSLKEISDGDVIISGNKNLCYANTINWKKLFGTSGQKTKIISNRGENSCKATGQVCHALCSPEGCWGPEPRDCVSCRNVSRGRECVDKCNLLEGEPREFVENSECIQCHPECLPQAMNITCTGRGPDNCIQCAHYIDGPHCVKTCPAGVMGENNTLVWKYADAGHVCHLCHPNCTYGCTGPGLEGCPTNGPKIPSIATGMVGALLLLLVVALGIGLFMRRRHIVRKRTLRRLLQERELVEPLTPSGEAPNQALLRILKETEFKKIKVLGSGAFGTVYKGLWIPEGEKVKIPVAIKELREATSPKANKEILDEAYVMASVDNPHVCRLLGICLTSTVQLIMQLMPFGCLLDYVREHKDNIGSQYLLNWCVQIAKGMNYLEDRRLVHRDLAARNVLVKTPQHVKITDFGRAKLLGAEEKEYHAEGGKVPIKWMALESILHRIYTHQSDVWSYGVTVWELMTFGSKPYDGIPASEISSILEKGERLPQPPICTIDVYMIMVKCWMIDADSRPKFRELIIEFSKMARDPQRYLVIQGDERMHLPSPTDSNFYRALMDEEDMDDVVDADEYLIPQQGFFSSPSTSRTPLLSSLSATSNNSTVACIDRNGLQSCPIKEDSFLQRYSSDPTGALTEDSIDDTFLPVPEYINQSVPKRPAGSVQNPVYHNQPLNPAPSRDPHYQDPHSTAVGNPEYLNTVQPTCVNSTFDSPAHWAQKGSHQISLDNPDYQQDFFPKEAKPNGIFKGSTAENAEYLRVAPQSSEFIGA

Turning to `O=C1c2cc(-c3ccc4[nH]ccc4c3)ccc2Nc2ccc(F)cc2N1c1ccccc1` [I-8], the EC50 in assay [1] (setting [3]) and in assay [1] (setting [5]) was at least 0.75 µM in each case. The “Remaining cell proliferation activity (% of control)” value in assay [1] (setting [4]) and in assay [1] (compound at 1 μM) was “D (75 ≤ D)” in each case.

As for `O=C1c2cc(-c3ccc(N4CCNCC4)cc3)ccc2Nc2ccc(F)cc2N1Cc1nccs1` [I-7], the EC50 in assay [1] (setting [3]) and in assay [1] (setting [5]) was at least 0.75 µM each time. The “Remaining cell proliferation activity (% of control)” value in assay [1] (setting [4]) is reported as “C (50 ≤ C < 75)”; in assay [1] (compound at 1 μM) it was “D (75 ≤ D)”.

As for `CN1CCN(c2ccc(-c3ccc4c(c3)C(=O)N(Cc3ccccc3)c3cc(F)ccc3N4)cc2)CC1` [I-17], the 50% inhibitory concentration (IC50) in assay [2] was under 0.25 µM.

For `CN1CCC(n2cc(-c3ccc4c(c3)C(=O)N(Cc3cccc5cc[nH]c35)c3cc(F)ccc3N4)cn2)CC1` [I-25], the EC50 in assay [1] (setting [3]) and in assay [1] (setting [5]) was at least 0.75 µM in each case.

With `O=C1c2cc(-c3ccc(N4CCNCC4)cc3)ccc2Nc2ccccc2N1Cc1ccccc1` [I-11], the EC50 in assay [1] (setting [3]) is at least 0.75 µM; in assay [1] (setting [5]), 0.25 to 0.5 µM. Besides, the “Remaining cell proliferation activity (% of control)” value in assay [1] (setting [4]) is “B (25 ≤ B < 50)”; in assay [1] (compound at 1 μM), “D (75 ≤ D)”.

For the molecule `O=C1c2cc(-c3ccc(N4CCNCC4)cc3)ccc2Nc2ncc(F)cc2N1Cc1ccccc1` [I-12], the EC50 in assay [1] (setting [3]) and in assay [1] (setting [5]) was at least 0.75 µM throughout.

For the molecule `CN1CCC(n2cc(-c3ccc4c(c3)C(=O)N(Cc3cc(F)cc(F)c3)c3cc(F)ccc3N4)cn2)CC1` [I-24], the EC50 in assay [1] (setting [3]) and in assay [1] (setting [5]) was at least 0.75 µM each time.

In the case of `CN1CCC(n2cc(-c3ccc4c(c3)C(=O)N(Cc3cccc(F)c3)c3cc(F)ccc3N4)cn2)CC1` [I-22], the EC50 in assay [1] (setting [3]) and in assay [1] (setting [5]) was at least 0.75 µM throughout.

Turning to `O=C1c2cc(-c3ccc4[nH]ccc4c3)ccc2Nc2ccc(F)cc2N1Cc1ccccc1` [I-2], the values for the EC50 in assay [1] (setting [3]) and in assay [1] (setting [5]) were at least 0.75 µM and under 0.25 µM, respectively. In addition, the “Remaining cell proliferation activity (% of control)” value in assay [1] (setting [4]) is “B (25 ≤ B < 50)”; in assay [1] (compound at 1 μM), “D (75 ≤ D)”.

For `O=C1c2cc(-c3ccc4[nH]ccc4c3)ccc2Nc2ccc(F)cc2N1Cc1cccnc1` [I-9], the EC50 in assay [1] (setting [3]) and in assay [1] (setting [5]) was at least 0.75 µM in each case. Besides, the “Remaining cell proliferation activity (% of control)” value in assay [1] (setting [4]) and in assay [1] (compound at 1 μM) was “D (75 ≤ D)” in each case.

As to `CN1CCC(n2cc(-c3ccc4c(c3)C(=O)N(Cc3cccc(Cl)c3)c3cc(F)ccc3N4)cn2)CC1` [I-23], the EC50 in assay [1] (setting [3]) and in assay [1] (setting [5]) was at least 0.75 µM throughout.

On to `O=C1c2cc(-c3ccc(N4CCNCC4)cc3)ccc2Nc2ccc(F)cc2N1Cc1ccccc1` [I-1, 10-Benzyl-8-fluoro-2-(4-(piperazin-1-yl)phenyl)-5,10-dihydro-11H-dibenzo[b,e][1,4]diazepin-11-one], for which the results for the EC50 in assay [1] (setting [3]) and in assay [1] (setting [5]) were at least 0.75 µM and 0.5 to 0.75 µM, respectively. Moreover, the “Remaining cell proliferation activity (% of control)” value in assay [1] (setting [4]) is on record as “B (25 ≤ B < 50)”; in assay [1] (compound at 1 μM) it was “D (75 ≤ D)”. For the same molecule, the IC50 in assay [2] was under 0.25 µM.

On to `O=C1c2cc(-c3ccc4[nH]ccc4c3)ccc2Nc2ccc(F)cc2N1Cc1nccs1` [I-10], for which the EC50 in assay [1] (setting [3]) and in assay [1] (setting [5]) was at least 0.75 µM in each case. The “Remaining cell proliferation activity (% of control)” value in assay [1] (setting [4]) and in assay [1] (compound at 1 μM) was “D (75 ≤ D)” each time.

For the molecule `O=C1c2cc(-c3ccc(N4CCNCC4)cc3)ccc2Nc2ccc(F)cc2N1c1ccccc1` [I-5], the EC50 in assay [1] (setting [3]) and in assay [1] (setting [5]) was at least 0.75 µM in each case. Moreover, the “Remaining cell proliferation activity (% of control)” value in assay [1] (setting [4]) and in assay [1] (compound at 1 μM) was “D (75 ≤ D)” throughout.

For the molecule `O=C1c2cc(-c3ccc(N4CCNCC4)cc3)ccc2Nc2ccncc2N1Cc1ccccc1` [I-13], the EC50 in assay [1] (setting [3]) and in assay [1] (setting [5]) was at least 0.75 µM in each case.

As to `CN1CCC(n2cc(-c3ccc4c(c3)C(=O)N(Cc3ccccc3)c3cc(F)ccc3N4)cn2)CC1` [I-3], the EC50 in assay [1] (setting [3]) is at least 0.75 µM; in assay [1] (setting [5]) it was under 0.25 µM. The “Remaining cell proliferation activity (% of control)” value in assay [1] (setting [4]) is listed as “B (25 ≤ B < 50)”; in assay [1] (compound at 1 μM) it was “D (75 ≤ D)”.

For `O=C1c2cc(-c3ccc(-c4cn[nH]c4)cc3)ccc2Nc2ccc(F)cc2N1Cc1ccccc1` [I-4], the values for the EC50 in assay [1] (setting [3]) and in assay [1] (setting [5]) were at least 0.75 µM and 0.25 to 0.5 µM, respectively. Further, the “Remaining cell proliferation activity (% of control)” value is on record as “A (0 ≤ A < 25)” in assay [1] (setting [4]) and “D (75 ≤ D)” in assay [1] (compound at 1 μM).

On to `O=C1c2cc(-c3ccc(N4CCNCC4)cc3)ccc2Nc2ccc(F)cc2N1Cc1cccnc1` [I-6], for which the EC50 in assay [1] (setting [3]) and in assay [1] (setting [5]) was at least 0.75 µM throughout. Also, the “Remaining cell proliferation activity (% of control)” value in assay [1] (setting [4]) and in assay [1] (compound at 1 μM) was “D (75 ≤ D)” each time.

Take `O=C1c2cc(-c3ccc(N4CCNCC4)cc3)ccc2Nc2ccc(F)cc2N1Cc1cccc2cc[nH]c12` [I-18]: the EC50 was at least 0.75 µM in assay [1] (setting [3]) and under 0.25 µM in assay [1] (setting [5]).

For the molecule `Nc1ccc2c(c1)N(Cc1ccccc1)C(=O)c1cc(-c3ccc4[nH]ccc4c3)ccc1N2` [I-14], the EC50 in assay [1] (setting [3]) and in assay [1] (setting [5]) was at least 0.75 µM each time.

For the molecule `CC(=O)Nc1ccc2c(c1)N(Cc1ccccc1)C(=O)c1cc(-c3ccc4[nH]ccc4c3)ccc1N2` [I-15], the EC50 in assay [1] (setting [3]) and in assay [1] (setting [5]) was at least 0.75 µM each time.

For `O=C1c2cc(-c3ccc(N4CCNCC4)cc3)ccc2Nc2ccc(F)cc2N1Cc1ccc2cc[nH]c2c1` [I-19], the EC50 in assay [1] (setting [3]) and in assay [1] (setting [5]) was at least 0.75 µM in each case.

For the molecule `CCC(=O)Nc1ccc2c(c1)N(Cc1ccccc1)C(=O)c1cc(-c3ccc4[nH]ccc4c3)ccc1N2` [I-16], the EC50 in assay [1] (setting [3]) and in assay [1] (setting [5]) was 0.25 to 0.5 µM in each case.

In general, IC50 refers to the point on the concentration scale where inhibition reaches its midpoint.
